This note sets out measurements from doi:10.1101/2024.05.26.595989v1 (biorxiv, 2024).

In general, pKd refers to the Kd on a negative log10 scale, so that one unit is a factor of ten.

pKd: −log10 of the molar value. Like-named read-outs stand apart in the source and are kept apart here.

In test [1] the target is T1, PDI (PDIA1), purified / recombinant wild-type human PDI (Homo sapiens, UniProt P07237). As to the kind of experiment: biochemical.
The target in test [2] is T1, PDI (PDIA1), purified / recombinant wild-type human PDI. As to the kind of experiment: biochemical. The source holds these as a separate data set.

T1 sequence (P07237 18-508): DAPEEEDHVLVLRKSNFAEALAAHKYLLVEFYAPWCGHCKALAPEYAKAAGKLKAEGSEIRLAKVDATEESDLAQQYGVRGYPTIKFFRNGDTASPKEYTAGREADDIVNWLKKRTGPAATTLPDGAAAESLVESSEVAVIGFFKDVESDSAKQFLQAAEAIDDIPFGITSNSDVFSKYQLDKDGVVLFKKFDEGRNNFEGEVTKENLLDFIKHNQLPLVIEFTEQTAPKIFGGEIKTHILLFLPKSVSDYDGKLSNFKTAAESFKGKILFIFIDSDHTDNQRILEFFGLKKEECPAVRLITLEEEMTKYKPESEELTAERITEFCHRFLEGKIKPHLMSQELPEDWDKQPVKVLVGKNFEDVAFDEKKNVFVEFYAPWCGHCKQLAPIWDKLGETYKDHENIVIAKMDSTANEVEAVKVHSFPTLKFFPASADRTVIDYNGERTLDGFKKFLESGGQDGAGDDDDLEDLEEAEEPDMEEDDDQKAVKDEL

In the case of `C[C@]12CC[C@@H]3c4cc(O)c(O)cc4CC[C@H]3[C@@H]1CCC2=O` [2-OH-E1, 1,3,5([10])-Estratrien-2,3-diol-17-one], the negative-log Kd (pKd) in test [1] is 7.62.

Regarding `C[C@]12CC[C@@H]3c4cc(O)c(O)cc4CC[C@H]3[C@@H]1CC[C@@H]2O` [2-OH-E2, 1,3,5([10])-estratrien-2,3,17β-triol], the negative logarithm of the Kd (pKd) in test [2] was 7.17 to 7.21.
